Article PMC4092041 (Journal of cardiovascular pharmacology, 2014)

Key:
[1] = Stability of EpFAs at 37°C, neutral pH; type: physicochemical
COX pathway = settings: kidney; P < 0.05
sEH = settings: cited from earlier work
[2] = test system: P450 metabolites of the ARA cascade / sEH; test: Oxylipin profiling: P450 and sEH metabolites; settings: for Increase in plasma levels of the infused EpFA vs Ang II infused animals: subcutaneous infusion, corresponding groups
[3] = cited from earlier work
[4] = test system: angiotensin-II dependent hypertension; test: Systolic blood pressure; type: in vivo, mice; settings: overall mixed effects analysis, all days; TPPU alone 0.2 mg/kg in drinking water; P < 0.05
LOX pathway = test: Oxylipin profiling: LOX metabolites; type: in vivo, mice; settings: kidney; TPPU 0.2 mg/kg
Body weight gain = type: in vivo; settings: Ang II infused mice
[5] = test system: angiotensin-II dependent hypertension; settings: TPPU 0.2 and 0.6 mg/kg; cited from earlier work

CCC1OC1C/C=C\C/C=C\C/C=C\C/C=C\C/C=C\CCC(=O)O (stereo not shown) [19, 20-EDP, epoxydocosapentaenoic acid]
Stability [1]: quite stable | Tissue levels of PGE2 vs Ang II infusion alone (COX pathway): significantly decreased by half | Rate of metabolism by sEH compared to most other fatty acid epoxides tested (sEH): more slowly metabolized | Tissue levels of 19, 20-EDP relative to tissue levels of 14, 15-EET ([2]; animals receiving these EpFAs): 6 times | Renal levels of 14, 15-EET vs Ang II infused animals ([2]; kidney, TPPU 0.2 mg/kg): significantly decreased | Increase in plasma levels of the infused EpFA vs Ang II infused animals ([2]; P < 0.05): approximately 2 fold

CCCCc1nc(Cl)c(CO)n1Cc1ccc(-c2ccccc2-c2nn[nH]n2)cc1 [losartan]
Adverse effect on monovalent cation balance [3]: hyperkalemia | BP in normotensive animals [3]: reduced BP

CCCCCC1OC1C/C=C\C/C=C\C/C=C\CCCC(=O)O (stereo not shown) [14, 15-EET, epoxyeicosatrienoic acid]
Stability [1]: quite stable | Increase in plasma levels of the infused EpFA vs Ang II infused animals ([2]; P < 0.05): approximately 2 fold

CCC(=O)N1CCC(NC(=O)Nc2ccc(OC(F)(F)F)cc2)CC1 [TPPU]
SBP (percent change from baseline) vs Ang II infused controls [4]: statistically lower SBP | Tissue levels of 15(S)-HETrE vs 19, 20-EDP treatment alone (LOX pathway): increased | Tissue levels of 15-HETE vs 19, 20-EDP treatment alone (LOX pathway): increased | Body weight gain (Body weight gain): did not alter body weight gain | Renal PGD2 vs Ang II infusion and 19, 20-EDP alone (COX pathway): decreased | Blood pressure in Ang II hypertension [5]: lower blood pressure to near baseline levels | Increase in renal DiHOMEs vs 19, 20-EDP alone or Ang II infusion ([2]; TPPU 0.2 mg/kg, P < 0.05): approximately 3 fold | Renal levels of 19, 20-EDP vs Ang II alone or 19, 20-EDP treated animals ([2]; kidney, TPPU 0.2 mg/kg): significantly increased | Summed plasma concentration of DiHDPEs vs 19, 20-EDP treatment alone ([2]; plasma, TPPU 0.2 mg/kg): decreased significantly
